Legend:
[1] = Fragment solubility assay (quantitative 1H NMR); format: physicochemical; details: NMR buffer, overnight incubation, 1H NMR quantified against 1 mM caffeine standard
[2] = target: T1, shelterin complex (Homo sapiens, UniProt P54274); test: SDS-PAGE/Western blot of crosslinked shelterin after compound incubation; format: biochemical
T1 construct: evicted full-length TRF1 from the shelterin complex; made in house; host or cells: Spodoptera frugiperda (Sf9) insect cells, MultiBac baculovirus
T1 sequence (P54274 1-439): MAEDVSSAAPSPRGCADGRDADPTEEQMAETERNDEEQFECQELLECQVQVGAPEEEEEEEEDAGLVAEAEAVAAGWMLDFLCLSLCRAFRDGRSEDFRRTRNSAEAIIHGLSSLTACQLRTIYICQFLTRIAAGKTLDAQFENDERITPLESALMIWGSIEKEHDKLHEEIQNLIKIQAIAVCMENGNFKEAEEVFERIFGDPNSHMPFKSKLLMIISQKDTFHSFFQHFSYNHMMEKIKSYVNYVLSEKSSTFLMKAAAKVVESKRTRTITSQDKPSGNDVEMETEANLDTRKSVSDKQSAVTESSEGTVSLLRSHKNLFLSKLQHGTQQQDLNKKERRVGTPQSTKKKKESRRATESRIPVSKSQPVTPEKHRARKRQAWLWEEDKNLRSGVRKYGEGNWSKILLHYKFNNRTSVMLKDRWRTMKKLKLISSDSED
Source text: We developed a mass-photometry based assay to evaluate the ability of compound 40 to disrupt the TRF1TRFH:TIN2TBM interaction and subsequently evict TRF1 from the full shelterin complex. We expressed recombinant shelterin in insect cells (see Materials and Methods) and purified it via affinity and size exclusion chromatography (SEC). Given the compositional heterogeneity of shelterin, also observed by Zinder et al. 2022[42], we enriched a complex of approximately 700 kDa by serial SEC. The resulting complex was incubated with increasing concentrations of compound 40, and the resulting mass distribution was analysed by mass photometry. […] To confirm whether the evicted entity corresponds to TRF1, we analysed the full shelterin complex by SDS-PAGE, upon co-incubation with increasing amounts of compound 40 or control compound 60 and subsequent mild crosslinking, analogous to the mass photometry experiment. […]
For SDS-PAGE and Western blotting studies, SEC-purified shelterin was diluted to 0.9 µM and incubated with increasing concentrations of compound 40 or 60 (negative control) in the same range as for the MP experiment (from 0 to 300 µM). […] The samples were then analysed by SDS-PAGE, followed by either Coomassie staining or Western blotting. […] Normalised signal intensities from three independent experiments were analysed and plotted using GraphPad Prism (v10.5.0).

- Kin. Sol. [1]: 320 µM
- release of TRF1 (species migrating between 100 and 150 kDa) ([2]; 0.9 µM shelterin, 0-300 µM compound, 0.075% glutaraldehyde): dose-dependently liberated
- release of TRF2 and TIN2 from shelterin ([2]; Western blot probing for TRF2 and TIN2): TRF2 was not released, nor was TIN2
Structure (SMILES): COc1cc(COc2ccc(S(=O)(=O)[O-])c3ccccc23)cc(OC)c1.[Na+] [Compound 40]

Reference: publication PMC12635197, “Discovery of first-in-class inhibitors of the TRF1:TIN2 protein:protein interaction by fragment screening” (Scientific Reports, 2025)
